The structures appear in SMILES notation.

This assay has as its system X-MuLV. As to the kind of experiment: Dual X-MuLV inactivation by low pH and detergent in mAb protein A eluate, remaining infectivity by TCID50 assay on PG-4 cells. In kind it is cell-based, Xenotropic Murine Leukemia Virus. Particulars: for LRF ± 95% CL: 16° C. Here is the method:
[…] The pH adjusted eluates were then filtered by a 0.22 um filter. Various volumes of 5% detergent stock solution were then added to the filtered protein A eluates. The low pH protein A eluates containing Mega-10, Tween 80 or Tween 20 were pre-incubated at a 16° C. water bath prior to spiking with X-MuLV at a 1:20 ratio. After a thorough mixing, an aliquot of sample was removed immediately and neutralized with 1 M Tris buffer to stop low pH viral inactivation, then immediately quenched with diluent at 1:12 for Mega-10 or at 1:100 for Tween 20 and Tween 80 to stop viral inactivation by the detergent. The collected sample was designated as a time-zero reference. The remaining spiked eluate was returned to the water bath and the samples were collected at indicated times to evaluate the viral inactivation kinetics. The remaining X-MuLV infectivity in the samples post-inactivation treatment was determined by a TCID50 assay that is an endpoint dilution assay to quantify the amount of virus required to produce a cytopathic effect in 50% of inoculated tissue culture cells. Virus titers were estimated using the Spearman-Karber method and reported as TCID50/mL with a calculated 95% confidence interval (CI). Briefly, a sufficient number of 96-well plates with PG-4 (feline S^+L^−, ATCC#CRL-2032) cells were prepared the day before starting the viral inactivation experiments and incubated overnight in a 37° C. humidified CO2 incubator. A set of ten 3.2 fold dilution of the diluted positive control (1:100) and viral inactivated samples were prepared in a dilution block. Each set of the 11 serial dilutions of the samples were inoculated correspondingly onto wells (100 μL per well) of the first 11 columns in a 96-well plate that had been pre-seeded with PG-4 cells. The 12th column in the same plate was inoculated with the corresponding diluent to serve as non-virus negative control. The positive control was prepared by spiking the filtered neutralized protein A eluate with X-MuLV at a 1:20 ratio. The inoculated plates were then incubated in a 37° C. humidified CO2 incubator for approximate 2 hours. A volume of 100 uL of 2× assay medium (92% McCoy's 5A medium, 4% FBS, 2% Penicillin/Streptomycin, 2% L-Glutamine) was added to each well of the plates at the end of incubation. The plates were then returned to the same incubator, and continued incubation for 6 days. Each well of the plates were scored under a microscope for the presence of cytopathic effect (CPE) and the results were recorded in a scoring sheet. Virus titers were then estimated using the Spearman-Karber method and reported as TCID50/mL with a calculated 95% confidence interval (CI).

`CCCCCCCCCC(=O)N(C)C[C@H](O)[C@@H](O)[C@H](O)[C@H](O)CO` [Mega-10, N-Methylglucamide]: the “LRF ± 95% CL” value is, setting by setting: (dual treatment pH 3.91 + 0.10% Mega 10, mAb1 protein A eluate, 0 minutes) 3.74 ± 0.33; (dual treatment pH 3.91 + 0.10% Mega 10, mAb1 protein A eluate, 2.5 minutes) no less than 5.40±0.21; (dual treatment pH 3.91 + 0.10% Mega 10, mAb1 protein A eluate, 2.5 minutes, listed as Mega 10) no less than 5.40 ± 0.21; (dual treatment pH 3.91 + 0.10% Mega 10, mAb1 protein A eluate, 5 minutes) no less than 5.40 ± 0.21; (dual treatment pH 3.91 + 0.10% Mega 10, mAb1 protein A eluate, 10 minutes) no less than 5.40 ± 0.21; (dual treatment pH 3.91 + 0.10% Mega 10, mAb1 protein A eluate, 30 minutes) no less than 5.40 ± 0.21. Moreover, the “LRF ± 95% CL” value runs as follows: (dual treatment pH 4.05 + 0.15% Mega 10, mAb2 protein A eluate, 0 minutes) 1.62 ± 0.27; (dual treatment pH 4.05 + 0.15% Mega 10, mAb2 protein A eluate, 2.5 minutes) 3.96 ± 0.31; (dual treatment pH 4.05 + 0.15% Mega 10, mAb2 protein A eluate, 5 minutes) 5.50±0.83; (dual treatment pH 4.05 + 0.15% Mega 10, mAb2 protein A eluate, 5 minutes, listed as Mega 10) 5.50 ± 0.83; (dual treatment pH 4.05 + 0.15% Mega 10, mAb2 protein A eluate, 10 minutes) ≥5.81 ± 0.18^; (dual treatment pH 4.05 + 0.15% Mega 10, mAb2 protein A eluate, 30 minutes) ≥5.81 ± 0.18^. Moreover, the “time to inactivate X-MuLV to the level below the detection limit” value (dual treatment: mAb1 protein A eluate pH 3.91 with 0.1% Mega-10, 16° C. (240 minutes by pH 3.91 alone at 18° C.)) was 2.5 min. For the same molecule, the “time needed for inactivating X-MuLV to the level below the detection limit” value (dual treatment: mAb2 protein A eluate pH 4.05 with 0.15% Mega-10, 16° C. (120 minutes by pH 4.0 alone at 18° C.)) is 10 min.

The record behind these values is patent US12123028B2, “Viral inactivation methods for continuous manufacturing of antibodies” (Bayer HealthCare LLC, priority 2018, dated 2024).
